Data taken from US12692232B2, “Indole carboxamide compound, preparation therefor and use thereof” (NANJING RUISHUNING MEDICAL TECHNOLOGY CO., LTD., priority 2021, dated 2026).

Assays:
Assay type in all cases: in vivo
[1] = tested on: H22 liver subcutaneous transplanted tumor; assay: Mouse model of H22 liver subcutaneous transplanted tumor; settings: 20 mg/kg injected intraperitoneally 14 days (positive drug)
Protocol: (§1) The method was as follows:
Experimental procedure: H22 hepatoma cell suspension was adjusted to 1×10^7/mL after dilution and counting with normal saline, and 0.2 mL per mouse was inoculated on the back of the mice. After 24 hours, the mice were weighed and administered drug at a dose of 0.1 mL/10 g once a day, wherein the mice in the solvent control group and the treatment groups were administered 0.9% sodium chloride solution and the compound of the present invention, respectively, for 14 days, and the mice in the CTX group were injected intraperitoneally for 14 days. The mice were weighed after 14 days. The animals were executed and the tumor blocks were removed and weighed separately. The tumor inhibition rate was calculated according to the following formula: tumor inhibition rate (%)=(1−average tumor weight in a treatment group/average tumor weight in the solvent control group)×100%.

[2] = tested on: mouse model of focal segmental glomerulosclerosis; assay: Mouse model of focal segmental glomerulosclerosis (adriamycin)
Protocol: as §1
Each mouse in the model group, the treatment groups and the positive control group was injected once into the tail vein with adriamycin at a dose of 8 mg/kg, and each mouse in the control group was injected once into the tail vein with saline at the same dose. The mice in the control group and model group were administered equal amount of saline by gavage for 6 weeks, and the mice in other group were administered corresponding compound in doses by gavage at a fixed time each day for 6 weeks after modelling with adriamycin. The body weights were recorded weekly and urine samples were collected.
Collection of urine samples: animals were placed in separate metabolic cages by group on days 0, 7, 14, 21, 28, 35, and 42 after modelling, with free access to water and no access to food, and urine samples were collected from each group of mice.
Determination of urine protein level using Coomassie brilliant blue (CBB) method: urine protein level was determined by urine protein quantitative test kit (Nanjing Jiancheng Bioengineering Institute). CBB working solution was prepared according to the kit instructions. 0.05 mL of each urine sample was mixed with 3 mL of CBB working solution, the mixture was allowed to stand for 5 min, and the absorbance value of each sample was determined at 595 nm. The urine protein levels samples of each group was calculated according to the protein standardization formula: urine protein level (mg/L)=(measured OD−blank OD)/(standard OD−blank OD)×563 mg/L.
Collection of serum samples: orbital blood from each mouse was collected in an EP tube, placed at 37° C. for 20 minutes, and centrifuged to obtain an upper layer of serum.
Collection of plasma samples: orbital blood from each mouse was collected in an anticoagulation tube, mixed well and stored at 4° C. for later use.
Determination of urea nitrogen level in plasma by diacetyl monoxime method: urea nitrogen level was determined by using blood urea nitrogen (BUN) test kit (Nanjing Jiancheng Bioengineering Institute). According to the kit instructions, 0.05 mL of anticoagulated plasma sample was mixed with 1 mL of oxime solution and 1 mL of acid working solution, and the mixtures were placed in a boiling water bath for 15 minutes. A UV-visible spectrophotometer was used to determine the absorbance values of each tube at a wavelength of 520 nm. Urea nitrogen levels in plasma samples of each group were calculated according to the formula: Urea nitrogen level (mmol/L)=(measured OD value−blank OD value)/(standard OD value−blank OD value)×10 mmol/L.
Collection of kidney tissue samples: kidneys were taken from mice after anesthesia, cut horizontally, and the upper part of the kidneys was embedded in OCT embedding box, sliced with frozen slicer and stored at −20° C.
H&E staining was used to assess pathological glomerular changes, and the procedure was as follows: frozen sections were fixed with 95% ethanol for 2 minutes, hydrated with distilled water, stained with hematoxylin for 3 minutes, washed with distilled water for 3 minutes, differentiated using 1% hydrochloric acid in ethanol for 10 seconds, washed with distilled water for 30 seconds, returned to blue in running water for 5 minutes, washed in distilled water for 30 seconds, stained with eosin for 30 seconds, washed with 75% and 85% ethanol for 20 seconds each, dehydrated rapidly with 95% ethanol for 1 minute, dehydrated with anhydrous ethanol, cleared to transparency in xylene (1 minute×3), and finally sealed with neutral balsam and photographed with a biomicroscope.

[3] = tested on: mouse model of renal fibrosis (UUO); assay: Mouse model of renal fibrosis (unilateral ureteral obstruction, UUO)
Protocol: The therapeutic effect of the compounds of the present invention (as exemplified by Compound 1-1 obtained in Example 1) on renal fibrosis was determined using a mouse model of renal fibrosis. The method was as follows:
Grouping of animals: male C57BL/6J mice aged 8 weeks were given adaptive feeding for 3 days and grouped into a sham operation group, a sham operation-treatment group, a Unilateral ureteral obstruction (UUO) model group, a low-dose (10 mg/kg) treatment group, a medium-dose (25 mg/kg) treatment group, a high-dose (50 mg/kg) treatment group, a medium-dose (25 mg/kg) treatment group of indole analogue 3-[(1-methyl-1H-indole-2-carbonyl)amino]propionic acid disclosed in CN2019107285315, and a positive control group of losartan (50 mg/kg), with 10 animals in each group. Mice in the model and the treatment groups were anesthetized by intraperitoneal injection of 0.5% sodium pentobarbital at a dose of 0.1 mL/10 g. The mice were fixed on the operating table and cut open in layers from the right side of the mid-abdomen to locate the left kidney, and the ends of the ureter were ligated, while the ureter was cut off between the two ligations; the sham operation group was operated as described above and the ligations were not performed. Post-operative organs were repositioned, sutured, and sterilized with iodophor after suturing was completed. Immediately after operation, the drug was administered by gavage once daily for 14 days. Urine sample collection: animals were placed in separate metabolic cages by group on days 0, 5, 10 and 14 after modelling, without food or water, and urine samples were collected from each group of mice.
The protein levels in urine were determined using Coomassie brilliant blue (CBB) method by using urine protein quantitative test kit (Nanjing Jiancheng Bioengineering Institute). CBB working solution was prepared according to the kit instructions. 0.05 mL of each urine sample was mixed with 3 mL of CBB working solution, the mixture was left to stand for 5 min, and the absorbance value of each sample was determined at 595 nm. The protein levels in each group of urine samples were calculated according to the protein standardization formula: urine protein levels (mg/L)=(measured OD−blank OD)/(standard OD−blank OD)×563 mg/L.
Collection of serum sample: orbital blood from each mouse was collected in an EP tube, placed at 37° C. for 20 minutes, and centrifuged to obtain the upper layer of serum.
Collection of plasma sample: orbital blood from each mouse was collected in an anticoagulation tube, mixed well and stored at 4° C. for later use.
Determination of creatinine levels in urine and serum by the picric acid colorimetric method: creatinine levels in urine and serum were determined by using the creatinine test kit (Nanjing Jiancheng Bioengineering Institute). According to the kit instructions, 1.5 mL of urine sample or serum sample and 0.5 mL of picric acid solution, 0.5 mL of 0.5 mol/L sodium hydroxide solution were mixed, heated in water bath at 37° C. for 10 minutes. The absorbance value of each sample was determined using a UV spectrophotometer at a wavelength of 510 nm. Creatinine levels in samples of each group were calculated according to the formula: creatinine level (μmol/L) in serum or urine=(measured OD value−blank OD value)/(standard OD value−blank OD value)×50 μmol/L×(dilution ratio 201).
Determination of urea nitrogen level in plasma by diacetyl monoxime method: urea nitrogen level was determined was determined by using blood urea nitrogen (BUN) test kit (Nanjing Jiancheng Bioengineering Institute). According to the kit instructions, 0.05 mL of anticoagulated plasma samples were mixed with 1 mL of oxime solution and 1 mL of acid working solution, and the mixtures were placed in a boiling water bath for 15 min. A UV-visible spectrophotometer was used to determine the absorbance values of each tube at a wavelength of 520 nm. […]

[4] = tested on: rat model of pulmonary hypertension induced by monocrotaline; assay: Rat model of pulmonary hypertension induced by monocrotaline
Protocol: The preventive effect of the compounds of the present invention (as exemplified by compound 1-1 obtained in Example 1) on pulmonary hypertension was determined using a rat model of pulmonary hypertension induced by monocrotaline. The method was as follows:
Grouping of animals: 70 male SD rats with weigh of 200±20 g were randomly divided into 7 groups, i.e., a normal control group, a monocrotaline (MCT) model group, a treatment group of low-dose compound 1-1 (10 mg/kg) (MCT), a treatment group of medium-dose compound 1-1 (25 mg/kg) (MCT), a treatment group of high-dose compound 1-1 (50 mg/kg) (MCT), a treatment group of medium-dose indole analogue 3-[(1-methyl-1H-indole-2-carbonyl)amino]propionic acid (25 mg/kg) disclosed in CN2019107285315 (MCT), and a sildenafil group (150 mg/kg) (MCT), with 10 rats in each group.
Experimental procedure: MCT was prepared as a 2% solution with a mixture of ethanol and saline (2:8) and the solution was injected intraperitoneally once at a dose of 60 mg/kg body weight in all groups except the normal control group. Each rat in the normal control group was injected intraperitoneally once with a solution prepared from ethanol and saline in a volume ratio of 2:8. Compound 1-1 obtained in Example 1, the indole analogue 3-[(1-methyl-1H-indole-2-carbonyl)amino]propionic acid disclosed in CN2019107285315, or the positive drug sildenafil was administered by gavage to the mice in the treatment groups on the day of modelling, and saline was administered by gavage to the mice in the normal control group and the MCT model group. The drugs were administered by gavage once a day for 28 days until 12 hours before test.
Determination of hemodynamic indexes: a polyethylene plastic microcatheter filled with heparin solution (0.9% sodium chloride solution+10 U/mL heparin) was inserted into the right external jugular vein of a rat, and the other end of the microcatheter was connected to a miniature pressure transducer to monitor the pressure changes. […] After 30 minutes of stabilization, the POWERLAB multi-channel intelligent physiological signal acquisition and recording system was applied to acquire, record and analyze the indexes.
Determination of the index of right ventricular (RV) hypertrophy: at the end of the experiment, the heart was removed by dissection of the thorax and the atrial tissue was cut off. The right ventricle (RV), left ventricle (LV), and interventricular septum (S) were isolated along the edge of the interventricular septum, and the RV, LV, and S were weighed after absorbing water with filter paper and the ratio RV/(LV+S) was used to reflect the degree of RV hypertrophy.
Pathological examination of pulmonary vessels: tissue blocks were taken from the same site in the lower lobe of the right lung and fixed in 10% neutral formaldehyde (pH=7.4) for 2 days. Routine paraffin embedding, serial sections, H&E staining and light microscopy were performed to observe morphological changes in small pulmonary arteries.
Effect on inflammatory factors in lung tissue: Lung tissues were collected from each group of rats, homogenates of lung tissue were prepared and centrifuged and supernatants were collected. The protein level in the supernatant was determined by Coomassie brilliant blue method, and tumor necrosis factor-α (TNF-α) in rats was determined by an ELISA kit (Beijing 4A Biotech Co., Ltd.). […]

[5] = gavage once daily 14 days, not statistically different (P>0.05)
[6] = MCT + sildenafil (150 mg/kg) gavage 28 days

## O=P1(N(CCCl)CCCl)NCCCO1 (stereo not drawn) [CTX, cyclophosphamide, reference compound]
[1]
  tumor inhibition rate: 60.3%

## CCCCC1=NC2(CCCC2)C(=O)N1Cc1ccc(-c2ccccc2-c2nnn[nH]2)cc1 [irbesartan, reference compound]
[2]; 50 mg/kg gavage, 6 weeks
  serum urea nitrogen level reduced compared with the model group: 9.0%
[2]; 50 mg/kg gavage, 6 weeks, model 16.08±0.23
  serum urea nitrogen level: 14.63 ± 0.19 mmol/L
[2]; 50 mg/kg gavage, 6 weeks, model 547.0±106.3
  urine protein level: 382 ± 80.8 mg/L
[2]; FIG. 1, control compound 25 mg/kg, irbesartan 50 mg/kg
  glomerular lesions, renal tissue pathology (H&E, PAS, Sirius red stain): shows the same effect
[2]; gavage daily 6 weeks, compound 1-1 10, 25, 50 mg/kg, control compound 25 mg/kg, irbesartan 50 mg/kg
  body weight compared with the FSGS group: increased body weights

## CCCCc1nc(Cl)c(CO)n1Cc1ccc(-c2ccccc2-c2nn[nH]n2)cc1 [losartan, reference compound]
[3]; 50 mg/kg gavage 14 days
  creatinine level reduced compared with the model group: 19.0%
  urea nitrogen level reduced compared with the model group: 29.7%
  urine protein level reduced compared with the model group: 46.6%
[3]; 50 mg/kg gavage 14 days, model 17.56±0.48
  urea nitrogen level: 12.35 ± 0.37 mmol/L
[3]; 50 mg/kg gavage 14 days, model 32.48±0.87
  serum creatinine level: 26.32 ± 1.12 µmol/L
[3]; 50 mg/kg gavage 14 days, model 888.5±264.8
  urine protein level: 475 ± 112 mg/L
[3]; FIG. 2, control compound 25 mg/kg, losartan 50 mg/kg
  extent of renal fibrosis, pathological staining (H&E, Masson, Sirius red): shows the same effect
[3]; [5]
  body weight compared with the UUO model group: slight increase in body weight
  kidney weight compared with the UUO model group: slight decrease in kidney weight

## CCCc1nn(C)c2c(=O)[nH]c(-c3cc(S(=O)(=O)N4CCN(C)CC4)ccc3OCC)nc12 [sildenafil, reference compound]
[4]; [6]
  RV/(LV + S): 0.32 ± 0.02
  TNF-α in lung tissue: 0.600 ± 06 g/g protein
[4]; MCT + sildenafil (150 mg/kg) gavage once a day 28 days
  mPAP: 23.6 ± 3.4 mmHg
